Measurements: patent publication US20210220370A1, “SELECTIVE HDAC8 INHIBITORS AND THEIR USES” (HOCHSCHULE DARMSTADT, priority 2015, published 2021)
Read-outs that look alike come from different tables or passages of the source.

Columns and labels:
[1] = tested on: uterine leiomyosarcoma cell line SKUT-1; assay: Growth inhibition of cancer cell line, resazurin assay; format: cell-based, Human; details: Table 2, resazurin assay
[2] = tested on: T cell leukemia cell line JURKAT; assay: as above; details: for GI50: read-out: GI50 JURKAT
Experimental: The following tumor cell lines were used: • Human uterine leiomyosarcoma cell line SKUT-1 (ATCC® HTB114™) • Human T cell leukemia cell line JURKAT (ATCC® TIB152™) • Human breast cancer cell line MCF-7 (ATCC® HTB22™)
Cells were cultured in Dulbecco's modified Eagle's medium (DMEM) supplemented with 10% FCS.

[3] = target: HDAC1 (Homo sapiens, UniProt Q13547); assay: HDAC1 colorimetric assay, substrate Boc-Lys(Ac)-AMC
Experimental: 1 nM of HDAC1 was incubated with increasing concentrations of the respective compound for 30 minutes at 30° C. The reaction was initiated by addition of 50 μM of the substrate Boc-Lys(Ac)-AMC. After an incubation of 60 minutes the reaction was stopped by addition of 20 μM SAHA and the deacetylated substrate was converted into a fluorescent product by the addition of trypsin.

[4] = target: HDAC4 (Homo sapiens, UniProt P56524); format: biochemical; details: Table 1
[5] = target: HDAC5 (Homo sapiens, UniProt Q9UQL6); assay: HDAC5 colorimetric assay, substrate Boc-Lys(TFA)-AMC
[6] = target: HDAC2 (Homo sapiens, UniProt Q92769); assay: HDAC2 colorimetric assay, substrate Boc-Lys(Ac)-AMC; format: biochemical
[7] = tested on: breast cancer cell line MCF-7; assay: Growth inhibition of cancer cell line, resazurin assay; format: cell-based, Human; details: Table 2, resazurin assay
[8] = target: T1, HDAC7 (Homo sapiens, UniProt Q8WUI4); assay: HDAC7 colorimetric assay, substrate Boc-Lys(TFA)-AMC
T1 sequence (Q8WUI4 1-952): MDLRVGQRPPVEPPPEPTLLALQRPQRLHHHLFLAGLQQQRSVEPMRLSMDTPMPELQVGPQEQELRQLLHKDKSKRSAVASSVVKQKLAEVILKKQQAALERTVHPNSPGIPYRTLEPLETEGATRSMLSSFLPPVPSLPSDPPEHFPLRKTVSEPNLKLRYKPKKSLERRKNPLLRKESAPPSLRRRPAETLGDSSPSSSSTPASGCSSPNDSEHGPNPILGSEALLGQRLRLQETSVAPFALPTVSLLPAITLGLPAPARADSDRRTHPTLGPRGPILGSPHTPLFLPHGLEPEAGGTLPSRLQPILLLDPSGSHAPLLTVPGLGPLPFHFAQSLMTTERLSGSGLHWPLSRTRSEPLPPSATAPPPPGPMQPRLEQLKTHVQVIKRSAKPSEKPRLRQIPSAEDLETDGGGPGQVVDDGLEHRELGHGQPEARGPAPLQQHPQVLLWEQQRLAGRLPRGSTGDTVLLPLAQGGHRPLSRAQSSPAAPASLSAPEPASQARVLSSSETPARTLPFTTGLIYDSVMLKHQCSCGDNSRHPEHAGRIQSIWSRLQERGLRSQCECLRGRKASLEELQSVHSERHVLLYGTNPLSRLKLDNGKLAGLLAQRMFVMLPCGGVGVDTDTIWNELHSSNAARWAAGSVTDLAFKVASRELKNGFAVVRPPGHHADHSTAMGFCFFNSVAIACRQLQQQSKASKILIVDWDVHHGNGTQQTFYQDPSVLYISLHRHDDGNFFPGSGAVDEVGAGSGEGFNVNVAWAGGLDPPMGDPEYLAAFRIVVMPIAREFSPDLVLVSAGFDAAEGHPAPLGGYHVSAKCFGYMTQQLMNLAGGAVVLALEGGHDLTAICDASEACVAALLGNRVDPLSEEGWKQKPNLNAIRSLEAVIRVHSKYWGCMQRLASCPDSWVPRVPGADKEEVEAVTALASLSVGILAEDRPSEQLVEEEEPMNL

[9] = target: T2, HDAC6 (Homo sapiens, UniProt Q9UBN7); assay: HDAC6 colorimetric assay, substrate Boc-Lys(Ac)-AMC; format: biochemical
T2 sequence (Q9UBN7 1-1215): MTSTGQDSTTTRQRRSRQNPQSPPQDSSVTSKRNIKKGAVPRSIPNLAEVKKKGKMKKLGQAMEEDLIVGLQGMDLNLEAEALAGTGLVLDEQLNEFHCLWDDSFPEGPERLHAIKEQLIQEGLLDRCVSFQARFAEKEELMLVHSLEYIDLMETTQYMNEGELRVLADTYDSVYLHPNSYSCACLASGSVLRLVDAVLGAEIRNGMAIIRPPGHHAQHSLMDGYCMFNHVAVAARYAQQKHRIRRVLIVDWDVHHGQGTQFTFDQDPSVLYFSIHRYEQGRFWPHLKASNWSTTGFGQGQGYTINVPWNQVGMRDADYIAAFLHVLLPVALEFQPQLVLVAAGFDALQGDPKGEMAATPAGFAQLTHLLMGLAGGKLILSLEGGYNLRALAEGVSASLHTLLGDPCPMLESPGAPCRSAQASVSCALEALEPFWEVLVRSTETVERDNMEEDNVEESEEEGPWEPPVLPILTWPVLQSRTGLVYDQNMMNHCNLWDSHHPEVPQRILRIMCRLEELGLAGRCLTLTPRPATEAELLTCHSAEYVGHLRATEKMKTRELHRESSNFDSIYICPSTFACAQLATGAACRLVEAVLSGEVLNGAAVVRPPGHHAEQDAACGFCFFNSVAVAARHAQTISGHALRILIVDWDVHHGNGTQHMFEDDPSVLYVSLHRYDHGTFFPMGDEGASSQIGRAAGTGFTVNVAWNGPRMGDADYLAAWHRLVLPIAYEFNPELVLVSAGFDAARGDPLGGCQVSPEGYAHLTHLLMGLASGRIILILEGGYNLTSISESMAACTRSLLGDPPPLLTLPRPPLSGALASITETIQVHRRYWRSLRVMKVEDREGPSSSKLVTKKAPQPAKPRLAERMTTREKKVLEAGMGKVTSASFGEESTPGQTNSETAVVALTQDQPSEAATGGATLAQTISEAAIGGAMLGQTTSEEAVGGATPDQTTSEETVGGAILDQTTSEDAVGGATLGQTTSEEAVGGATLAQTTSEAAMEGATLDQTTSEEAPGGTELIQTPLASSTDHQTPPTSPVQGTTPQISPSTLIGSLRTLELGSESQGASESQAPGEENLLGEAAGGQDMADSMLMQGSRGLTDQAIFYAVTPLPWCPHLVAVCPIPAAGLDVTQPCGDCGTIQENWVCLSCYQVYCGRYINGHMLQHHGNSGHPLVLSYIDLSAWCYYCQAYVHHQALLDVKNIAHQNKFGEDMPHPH

[10] = target: HDAC3 (Homo sapiens, UniProt O15379); assay: HDAC3 colorimetric assay, substrate Boc-Lys(Ac)-AMC; format: biochemical; details: Table 1
[11] = target: T3, HDAC8 (Homo sapiens, UniProt Q9BY41); assay: HDAC8 colorimetric assay, substrate Boc-Lys(TFA)-AMC
T3 sequence (Q9BY41 1-377): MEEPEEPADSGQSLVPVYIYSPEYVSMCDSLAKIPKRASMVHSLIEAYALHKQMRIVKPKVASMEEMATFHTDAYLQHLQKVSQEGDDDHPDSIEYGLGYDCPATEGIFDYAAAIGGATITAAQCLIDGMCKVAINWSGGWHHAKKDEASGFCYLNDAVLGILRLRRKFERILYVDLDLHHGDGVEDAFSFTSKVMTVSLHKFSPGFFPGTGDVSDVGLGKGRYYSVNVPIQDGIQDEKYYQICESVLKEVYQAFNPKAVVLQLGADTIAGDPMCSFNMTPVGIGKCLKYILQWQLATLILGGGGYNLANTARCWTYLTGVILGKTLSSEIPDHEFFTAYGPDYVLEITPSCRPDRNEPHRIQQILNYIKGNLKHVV
Experimental: 1 nM of HDAC4 was incubated with increasing concentrations of the respective compound for 30 minutes at 30° C. The reaction was initiated by addition of 20 μM of the substrate Boc-Lys(trifluoracetyl)-AMC. After an incubation of 60 minutes the reaction was stopped by addition of 20 μM SAHA and the deacetylated substrate was converted into a fluorescent product by the addition of trypsin.

[12] = IC50 for HDAC1, FIG. 3, 50 μM Boc-Lys(Ac)-AMC
[13] = IC50 for HDAC7, FIG. 3, 20 μM Boc-Lys(TFA)-AMC
[14] = IC50 for HDAC8, FIG. 3, 20 μM Boc-Lys(TFA)-AMC

Sequence of HDAC5 (Q9UQL6 whole entry): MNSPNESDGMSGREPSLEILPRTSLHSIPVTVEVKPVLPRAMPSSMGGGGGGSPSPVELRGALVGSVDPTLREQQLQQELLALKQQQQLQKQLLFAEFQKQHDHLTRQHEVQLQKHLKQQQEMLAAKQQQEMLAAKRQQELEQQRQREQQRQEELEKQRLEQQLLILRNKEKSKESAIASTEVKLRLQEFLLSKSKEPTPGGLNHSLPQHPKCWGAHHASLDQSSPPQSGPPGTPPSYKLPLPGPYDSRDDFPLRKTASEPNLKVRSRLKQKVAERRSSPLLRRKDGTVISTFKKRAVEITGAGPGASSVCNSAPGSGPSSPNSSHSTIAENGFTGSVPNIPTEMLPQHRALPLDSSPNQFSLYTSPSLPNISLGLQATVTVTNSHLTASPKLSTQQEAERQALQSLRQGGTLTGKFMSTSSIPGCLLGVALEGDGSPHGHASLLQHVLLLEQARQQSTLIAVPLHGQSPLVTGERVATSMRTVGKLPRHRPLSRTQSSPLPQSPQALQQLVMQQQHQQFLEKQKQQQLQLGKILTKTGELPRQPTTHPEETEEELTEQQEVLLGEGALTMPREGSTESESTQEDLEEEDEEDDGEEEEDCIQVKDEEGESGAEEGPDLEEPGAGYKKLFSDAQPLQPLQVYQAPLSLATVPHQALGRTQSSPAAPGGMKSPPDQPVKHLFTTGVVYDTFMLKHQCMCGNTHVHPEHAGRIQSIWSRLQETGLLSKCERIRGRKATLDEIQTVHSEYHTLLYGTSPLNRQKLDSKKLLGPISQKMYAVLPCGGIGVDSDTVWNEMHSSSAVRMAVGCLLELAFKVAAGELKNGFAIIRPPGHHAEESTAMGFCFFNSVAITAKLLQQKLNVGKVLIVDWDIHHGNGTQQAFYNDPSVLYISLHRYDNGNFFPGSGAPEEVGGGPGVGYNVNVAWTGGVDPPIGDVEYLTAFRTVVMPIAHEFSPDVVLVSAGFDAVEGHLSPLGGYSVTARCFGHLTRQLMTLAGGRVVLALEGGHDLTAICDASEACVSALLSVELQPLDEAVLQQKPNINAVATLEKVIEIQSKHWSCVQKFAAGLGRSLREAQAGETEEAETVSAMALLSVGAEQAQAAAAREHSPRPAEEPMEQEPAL
Sequence of HDAC3 (O15379 whole entry): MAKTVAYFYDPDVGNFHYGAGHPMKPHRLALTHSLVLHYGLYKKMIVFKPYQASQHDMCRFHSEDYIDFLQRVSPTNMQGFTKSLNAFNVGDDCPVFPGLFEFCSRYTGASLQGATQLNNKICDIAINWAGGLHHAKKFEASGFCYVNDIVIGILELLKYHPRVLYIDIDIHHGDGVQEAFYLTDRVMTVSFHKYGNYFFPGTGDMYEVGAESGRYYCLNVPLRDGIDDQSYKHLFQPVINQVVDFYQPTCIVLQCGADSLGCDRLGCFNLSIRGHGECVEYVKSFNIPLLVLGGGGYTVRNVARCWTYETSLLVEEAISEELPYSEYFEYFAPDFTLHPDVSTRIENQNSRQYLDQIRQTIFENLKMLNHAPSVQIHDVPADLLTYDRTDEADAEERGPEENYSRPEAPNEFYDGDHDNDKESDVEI
Sequence of HDAC3 (Q9Y618 395-489 partner limits assumed): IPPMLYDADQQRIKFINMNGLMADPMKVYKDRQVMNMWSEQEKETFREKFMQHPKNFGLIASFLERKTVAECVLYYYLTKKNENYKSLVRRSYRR
Sequence of HDAC2 (Q92769 whole entry): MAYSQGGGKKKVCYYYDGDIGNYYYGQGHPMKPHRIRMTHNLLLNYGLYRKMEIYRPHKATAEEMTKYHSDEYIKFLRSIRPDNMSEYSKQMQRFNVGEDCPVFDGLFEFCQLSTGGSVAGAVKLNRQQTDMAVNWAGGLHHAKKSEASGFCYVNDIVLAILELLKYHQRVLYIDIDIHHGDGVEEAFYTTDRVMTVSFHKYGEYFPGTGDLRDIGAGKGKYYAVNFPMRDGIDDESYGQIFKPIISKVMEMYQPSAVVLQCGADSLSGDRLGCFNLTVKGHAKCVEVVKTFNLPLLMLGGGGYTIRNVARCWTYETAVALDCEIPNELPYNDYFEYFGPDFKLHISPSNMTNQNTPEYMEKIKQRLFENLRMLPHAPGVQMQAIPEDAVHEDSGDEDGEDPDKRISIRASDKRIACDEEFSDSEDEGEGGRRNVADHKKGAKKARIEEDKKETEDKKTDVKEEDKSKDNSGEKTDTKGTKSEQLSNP
Sequence of HDAC1 (Q13547 whole entry): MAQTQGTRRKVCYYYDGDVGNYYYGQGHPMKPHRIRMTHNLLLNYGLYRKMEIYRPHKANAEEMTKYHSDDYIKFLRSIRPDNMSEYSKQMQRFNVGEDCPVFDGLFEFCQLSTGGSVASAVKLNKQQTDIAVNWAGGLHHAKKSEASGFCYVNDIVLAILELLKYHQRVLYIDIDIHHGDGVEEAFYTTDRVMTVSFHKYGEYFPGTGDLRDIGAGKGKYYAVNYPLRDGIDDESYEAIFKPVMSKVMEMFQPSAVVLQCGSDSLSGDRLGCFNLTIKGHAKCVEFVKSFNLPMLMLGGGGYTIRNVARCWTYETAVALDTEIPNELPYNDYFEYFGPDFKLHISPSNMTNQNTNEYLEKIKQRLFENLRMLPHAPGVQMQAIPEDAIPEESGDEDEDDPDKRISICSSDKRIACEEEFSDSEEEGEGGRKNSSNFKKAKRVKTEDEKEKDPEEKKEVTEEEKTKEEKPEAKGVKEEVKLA
Sequence of HDAC4 (P56524 whole entry): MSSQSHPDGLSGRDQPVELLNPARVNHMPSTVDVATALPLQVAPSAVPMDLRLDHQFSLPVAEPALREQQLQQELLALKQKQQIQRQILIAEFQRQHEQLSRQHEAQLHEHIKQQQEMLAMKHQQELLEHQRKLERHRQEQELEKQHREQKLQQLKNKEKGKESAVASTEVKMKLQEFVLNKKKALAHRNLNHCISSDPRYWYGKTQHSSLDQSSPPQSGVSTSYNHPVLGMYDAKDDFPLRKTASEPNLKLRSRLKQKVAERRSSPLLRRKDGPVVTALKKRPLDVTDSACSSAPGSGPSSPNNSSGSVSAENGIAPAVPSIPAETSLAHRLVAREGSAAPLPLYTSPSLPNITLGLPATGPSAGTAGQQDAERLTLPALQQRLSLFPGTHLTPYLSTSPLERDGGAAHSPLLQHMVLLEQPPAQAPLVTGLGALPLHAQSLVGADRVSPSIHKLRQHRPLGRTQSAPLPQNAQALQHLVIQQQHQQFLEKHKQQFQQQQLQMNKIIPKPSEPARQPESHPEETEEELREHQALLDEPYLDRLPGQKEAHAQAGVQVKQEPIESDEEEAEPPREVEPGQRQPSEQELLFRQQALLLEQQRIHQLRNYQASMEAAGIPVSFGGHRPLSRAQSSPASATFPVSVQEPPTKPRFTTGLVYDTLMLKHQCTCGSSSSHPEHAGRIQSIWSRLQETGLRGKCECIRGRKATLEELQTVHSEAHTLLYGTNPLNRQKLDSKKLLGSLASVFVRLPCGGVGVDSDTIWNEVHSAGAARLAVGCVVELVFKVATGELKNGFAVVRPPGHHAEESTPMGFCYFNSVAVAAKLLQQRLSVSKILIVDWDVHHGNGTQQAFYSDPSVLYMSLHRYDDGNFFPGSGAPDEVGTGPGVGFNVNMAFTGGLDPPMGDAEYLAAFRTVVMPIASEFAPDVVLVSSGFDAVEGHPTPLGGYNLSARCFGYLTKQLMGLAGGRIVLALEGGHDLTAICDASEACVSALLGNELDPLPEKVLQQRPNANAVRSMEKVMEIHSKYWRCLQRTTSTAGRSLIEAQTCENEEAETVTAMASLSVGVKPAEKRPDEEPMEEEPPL

GI50 ([1]; Homo sapiens, SK-UT-1) [µM] | GI50 ([2]; Homo sapiens, Jurkat) [µM] | IC50 ([3]; IC50 HDAC1, Table 1) [µM] | IC50 [4] [µM] | IC50 [5] [µM] | IC50 ([6]; Table 1) [µM] | GI50 ([7]; Homo sapiens, MCF7) [µM] | IC50 ([8]; IC50 HDAC7, Table 1) [µM] | IC50 ([9]; Table 1, read-out: IC50 HDAC6) [µM] | IC50 [10] [µM] | IC50 ([11]; IC50 HDAC8, Table 1) [µM] | Structure (SMILES) | also measured
343 ± 191 | 558 ± 342 | > 50 | > 50 | > 50 | > 50 | 213 ± 50 | 1.3 ± 0.7 | > 50 | > 50 | 4.4 ± 0.8 | N=C1Sc2ccccc2C2=NCCN12 [Compound 13b, 2H-Benzo[e]Imidazo[1,2-c][1,3]Thiazin-5(3H)-Imine] | 
> 1000 | 56 ± 9 |  | 5.7 ± 0.3 | 1 | > 50 | > 1000 |  | 1.2 ± 0.4 | 20 ± 1 | 0.0059 ± 0.0003 | N=C1Sc2ccc(Cl)cc2C2=NCCCN12 [Compound 13e, 10-Chloro-3,4-Dihydrobenzo[e]Pyrimido[1,2-c][1,3]Thiazin-6(2H)-Imine] | IC50 [3, 12]: 7.9 µM; IC50 [8, 13]: 0.08 µM; IC50 [11, 14]: 0.0055 µM
106 ± 21 | 153 ± 28 |  | > 50 | 12 | > 50 | 200 ± 58 | 2 ± 0.5 | 14 ± 1 | > 50 | 0.072 ± 0.003 | CN(C)c1ccc2c(c1)SC(=N)N1CCCN=C21 [Compound 13d, 6-Imino-N,N-Dimethyl-2,3,4,6-Tetrahydrobenzo[e]Pyrimido[1,2-c][1,3]Thiazin-9-Imine] | IC50 [3, 12]: 34 µM; IC50 [8, 13]: 2.1 µM; IC50 [11, 14]: 0.071 µM
 |  |  |  |  |  |  |  |  |  |  | N=C1Sc2ccccc2C2=NCCCN12 [Compound P2742, 6H-6-Imino-(2,3,4,5-tetrahydropyrimido)[1,2-c]-[1,3]benzothiazine, reference compound] | IC50 [3, 12]: 3 µM; IC50 ([5]; read-out: IC50 for HDAC5, FIG. 3, 20 μM Boc-Lys(TFA)-AMC): 0.11 µM; IC50 [8]: 0.24 µM
> 1000 | 42 ± 3 | 35 ± 3 | 5.1 ± 0.6 | 0.74 ± 0.16 | > 50 | > 1000 | 5 ± 1 | 5.2 ± 1.1 | > 50 | 0.017 ± 0.001 | N=C1Sc2c(F)cccc2C2=NCCCN12 [Compound 13h, 8-Fluoro-3,4-dihydrobenzo[e]pyrimido[1,2-c][1,3]thiazin-6(2H)-imine] | 
109 ± 29 | 24 ± 3 | > 50 | > 50 | > 50 | > 50 | 16 ± 3 | > 50 | > 50 | > 50 | 9.2 ± 0.3 | N=C1Sc2c(F)cccc2C2=NCCN12 [Compound 13i, 7-Fluoro-2H-Benzo[e]Imidazo[1,2-c][1,3]Thiazin-5(3H)-Imine] | 
16 ± 3 | 17 ± 3 | 2.6 ± 0.3 | 2.3 ± 0.3 | 0.038 ± 0.001 | 16 ± 2 | 11 ± 3 | 2 ± 0.7 | 1.4 ± 0.2 | 7 ± 0.5 | 0.0063 ± 0.0004 | N=C1Sc2cccc(Br)c2C2=NCCCN12 [Compound 13j, 11-Bromo-3,4-Dihydrobenzo[e]Pyrimido[1,2-c][1,3]Thiazin-6(2H)-Imine] | 
45 ± 16 | 36 ± 4 | 5.8 ± 0.3 | 7.6 ± 0.8 | 0.24 ± 0.01 | > 50 | 44 ± 12 | 2.5 ± 0.1 | 1.3 ± 0.3 | 26 ± 4 | 0.0054 ± 0.0004 | Cc1ccc2c(c1)SC(=N)N1CCCN=C21 [Compound 13k, 9-Methyl-3,4-Dihydrobenzo[e]Pyrimido[1,2-c][1,3]Thiazin-6(2H)-Imine] | 
5.4 ± 0.4 | 3.7 ± 0.4 |  |  |  |  | 3.7 ± 0.4 |  |  |  |  | O=C(CCCCCCC(=O)Nc1ccccc1)NO [Compound 1, Vorinostat, reference compound] | 
35 ± 2 | 23 ± 2 | 3.7 ± 0.4 | 3.2 ± 0.5 | 0.038 ± 0.002 | > 50 | 179 ± 66 | 1.3 ± 0.2 | 1.3 ± 0.3 | 9.6 ± 0.7 | 0.0043 ± 0.0005 | Cc1cccc2c1C1=NCCCN1C(=N)S2 [Compound 13m, 11-Methyl-3,4-Dihydrobenzo[e]Pyrimido[1,2-c][1,3]Thiazin-6(2H)-Imine] | 
 |  |  |  |  |  |  |  |  |  |  | COc1ccc(Cn2ccc3ccc(C(=O)NO)cc32)cc1 [Compound 6, PCI-34051, reference compound] | GI50 ([1]; read-out: GI50 SK-UT-1): 136 ± 62 µM; GI50 ([2]; Table 2, resazurin assay): 40 ± 4 µM; GI50 ([7]; read-out: GI50 MCF7): 65 ± 18 µM

Structure (SMILES) | GI50 ([1]; Homo sapiens, SK-UT-1) [µM] | GI50 ([2]; Homo sapiens, Jurkat) [µM] | IC50 ([3]; IC50 HDAC1, Table 1) [µM] | IC50 [4] [µM] | IC50 [5] [µM] | IC50 ([6]; Table 1) [µM] | GI50 ([7]; Homo sapiens, MCF7) [µM] | IC50 ([8]; IC50 HDAC7, Table 1) [µM] | IC50 ([9]; Table 1, read-out: IC50 HDAC6) [µM] | IC50 [10] [µM] | IC50 ([11]; IC50 HDAC8, Table 1) [µM] | also measured
N=C1Sc2ccccc2C2=NCCCN12 [Compound 13a, 3,4-Dihydrobenzo[e]Pyrimido[1,2-c][1,3]Thiazin-6(2H)-Imine] | 736 ± 659 | 63 ± 8 | 3.6 ± 0.8 |  |  |  | > 1000 |  |  |  |  | GI against JURKAT cells [2]: 63 µM; times less active against JURKAT cells than on the isolated HDAC8 enzyme ([2]; ratio of JURKAT value to HDAC8 IC50): more than 5700; IC50 ([5]; read-out: IC50 HDAC5, Table 1): 0.11 ± 0.01 µM; IC50 [6]: 32 ± 1.5 µM; IC50 ([8]; read-out: IC50 HDAC7, Table 1): 0.22 ± 0.02 µM; IC50 [9]: 6.7 ± 0.8 µM
